Test results published in patent US9132138B2, “Method for the treatment of multiple sclerosis” (CASI Pharmaceuticals, Inc., priority 2012, dated 2015).

Assays:
NF-κB = assay: Gaussia luciferase reporter assay in Jurkat cells; format: cell-based; details: anti-CD3/28, 5 hours
Protocol: (§1) FIG. 4A, purified T cells pre-treated with 2ME2 (50 μM) were stimulated with PMA/iono for the indicated times. Whole cell lysates were subjected to immunoblotting to detect the indicated proteins. FIG. 4B, nuclear lysates were analyzed by EMSA to detect DNA binding to NF-κB or AP-1. FP, free probe. FIG. 4C, purified T cells or B cells were pre-treated with vehicle (−) or 50 μM 2ME2 (+) and were stimulated with PMA/iono for 30 or 60 minutes (left), or with anti-CD3/28 or anti-IgM/CD40 for 24 hours (right). Nuclear fractions of lymphocytes were analyzed by immunoblotting to detect nuclear translocation of NFATc1. Lamin A, nuclear protein loading control. NS; non-specific band. […]
(§2) Luciferase Assays were performed using Jurkat cells harboring a stably integrated Gaussia-luciferase reporter gene under the control of NF-κB or NFAT binding sites (Termed NFAT/NF-κB-GLuc reporter Jurkat). Gaussia luciferase contains a secretion peptide sequence mediating quantitative secretion of active enzyme into the surrounding medium. […] Luciferase activity was measured in 96-well plates using a Orion L microplate Luminometer (Berthold Detection Systems) with an integration time of 3.0 seconds. In parallel, cell viability was determined using the CellTiter-Glo® Luminescent Cell Viability Assay (Promega) and normalized Gluc activity was calculated as the ratio between Gluc activity and cell viability counts.

NFAT = assay: Gaussia luciferase reporter assay in Jurkat cells; format: cell-based; details: anti-CD3/28, 5 hours
Protocol: as §1, §2

human PBL = assay: CD25 expression and cytokine production by CD3/28-stimulated human PBL; format: cell-based
Protocol: Purified CD4^+ T cells were stimulated with plate-bound anti-CD3 (clone 2C11, BD, 10 ng/ml) plus anti-CD28 (clone 37.51, BD, 100 ng/ml). Purified B220+ B cells were stimulated with anti-IgM (Jackson, 5 μg/ml), anti-CD40 (clone 3/20, BD, 5 μg/ml) or LPS (Sigma, 20 μg/ml) for the times indicated in FIG. 3. CD25 and CD69 expression was determined by flow cytometry (FACSCanto II, BD) and analyzed using FloJo software (Treestar Inc). Proliferation was assessed by 3H-thymidine incorporation. Viability and upregulation of cell surface markers on activated T cells were assessed by flow cytometry using Annexin V and propridium iodide. Human Peripheral blood mononuclear cells (PBMC) were isolated using Mono-Poly Resolving Medium (MP Biomedical) according to the manufacturer's protocols and activated with anti-CD3 (clone UCHT1) and anti-CD28 (clone CD28.2).

NFATc1 = NFATc1 nuclear translocation by immunoblotting of nuclear fractions; format: cell-based, C57/BL6 mice
Protocol: FIG. 4A, purified T cells pre-treated with 2ME2 (50 μM) were stimulated with PMA/iono for the indicated times. Whole cell lysates were subjected to immunoblotting to detect the indicated proteins. FIG. 4B, nuclear lysates were analyzed by EMSA to detect DNA binding to NF-κB or AP-1. FP, free probe. FIG. 4C, purified T cells or B cells were pre-treated with vehicle (−) or 50 μM 2ME2 (+) and were stimulated with PMA/iono for 30 or 60 minutes (left), or with anti-CD3/28 or anti-IgM/CD40 for 24 hours (right). Nuclear fractions of lymphocytes were analyzed by immunoblotting to detect nuclear translocation of NFATc1. Lamin A, nuclear protein loading control. NS; non-specific band. For FIGS. 4A-4C, data are representative of at least two independent experiments. FIG. 4D, stably transfected NFAT and NF-κB Jurkat luciferase reporter cell lines were preincubated with 2ME2 for 30 minutes, and stimulated via crosslinking of anti-CD3/28 antibodies with goat anti-mouse antibodies (GaM). 5 hours later, secreted luciferase activity indicates relative transcriptional activity. Data is reported as normalized luciferase activity and is representative of 3 independent experiments.
T or B cells pre-incubated with vehicle or 2ME2 (50 μM) were stimulated with PMA (10 ng/ml)+iono (50 ng/ml); plate-bound anti-CD3 (30 ng/ml)+anti-CD28 (100 ng/ml); or anti-IgM (1 μg/ml)+anti-CD40 (1 μg/ml). Nuclear extracts (5 μg protein) were immunoblotted with anti-NFATc1 (clone 7A6, Santa Cruz) and anti-Lamin A (clone H-102, Santa Cruz).

ERα = biological target: T1, ERα (Homo sapiens, UniProt P03372); details: cited from earlier work
T1 sequence (P03372 1-595): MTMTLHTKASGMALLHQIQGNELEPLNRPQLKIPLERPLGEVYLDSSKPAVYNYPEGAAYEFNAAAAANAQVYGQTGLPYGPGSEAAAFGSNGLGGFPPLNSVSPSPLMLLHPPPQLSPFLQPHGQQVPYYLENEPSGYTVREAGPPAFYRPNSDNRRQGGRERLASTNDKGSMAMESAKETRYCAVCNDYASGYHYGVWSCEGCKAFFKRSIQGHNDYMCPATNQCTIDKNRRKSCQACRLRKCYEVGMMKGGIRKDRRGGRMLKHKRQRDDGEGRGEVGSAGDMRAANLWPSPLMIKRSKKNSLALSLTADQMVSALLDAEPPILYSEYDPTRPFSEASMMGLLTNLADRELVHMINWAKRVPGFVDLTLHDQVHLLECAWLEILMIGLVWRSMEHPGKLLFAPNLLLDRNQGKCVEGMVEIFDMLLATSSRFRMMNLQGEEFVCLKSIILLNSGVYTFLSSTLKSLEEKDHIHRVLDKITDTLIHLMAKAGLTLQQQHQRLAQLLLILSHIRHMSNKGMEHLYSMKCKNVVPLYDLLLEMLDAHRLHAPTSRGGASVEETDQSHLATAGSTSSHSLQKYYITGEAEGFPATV

SMILES: COc1cc2c(cc1O)CC[C@@H]1[C@@H]2CC[C@]2(C)[C@@H](O)CC[C@@H]12 [2ME2, 2-Methoxyestradiol]
- NF-κB-dependent transcriptional activity (normalized luciferase activity) (NF-κB): no effect
- transcriptional activation of NFAT via TCR ligation (normalized luciferase activity) (NFAT): dramatically inhibited
- IFNγ production (human PBL; CD3/28-stimulated human PBL): inhibited
- IL-2 production (human PBL; CD3/28-stimulated human PBL): inhibited
- IL-17A production (human PBL; CD3/28-stimulated human PBL): inhibited
- anti-CD3/28-induced expression of CD25 on CD4+ and CD8+ T cells (human PBL; human PBL): inhibited
- NFATc1 in the nuclear fraction of T cells (NFATc1; 50 μM 2ME2, 30-60 minutes after PMA/iono stimulation): reduce the amount of NFATc1 present in the nuclear fraction
- NFATc1 in the nuclear fraction of T cells (NFATc1; 50 μM 2ME2, 24 hours after anti-CD3/28 stimulation): reduce the amount of NFATc1 present in the nuclear fraction
- NFATc1 in the nuclear fraction of B cells (NFATc1; 50 μM 2ME2, 24 hours after anti-IgM/CD40-stimulation): reduce the amount of NFATc1 present in the nuclear fraction
- lower affinity than estradiol for ERα (ERα): 500 fold
